Data reported in patent publication US11427548B2 (Arvinas Operations, Inc., priority 2015, dated 2022).
Where two headings read alike, the source gives them in different places.

Biological target: T1, Androgen Receptor (Homo sapiens, UniProt P10275)
T1 construct: endogenous in cells; host or cells: VCaP cells
T1 sequence (P10275 1-920): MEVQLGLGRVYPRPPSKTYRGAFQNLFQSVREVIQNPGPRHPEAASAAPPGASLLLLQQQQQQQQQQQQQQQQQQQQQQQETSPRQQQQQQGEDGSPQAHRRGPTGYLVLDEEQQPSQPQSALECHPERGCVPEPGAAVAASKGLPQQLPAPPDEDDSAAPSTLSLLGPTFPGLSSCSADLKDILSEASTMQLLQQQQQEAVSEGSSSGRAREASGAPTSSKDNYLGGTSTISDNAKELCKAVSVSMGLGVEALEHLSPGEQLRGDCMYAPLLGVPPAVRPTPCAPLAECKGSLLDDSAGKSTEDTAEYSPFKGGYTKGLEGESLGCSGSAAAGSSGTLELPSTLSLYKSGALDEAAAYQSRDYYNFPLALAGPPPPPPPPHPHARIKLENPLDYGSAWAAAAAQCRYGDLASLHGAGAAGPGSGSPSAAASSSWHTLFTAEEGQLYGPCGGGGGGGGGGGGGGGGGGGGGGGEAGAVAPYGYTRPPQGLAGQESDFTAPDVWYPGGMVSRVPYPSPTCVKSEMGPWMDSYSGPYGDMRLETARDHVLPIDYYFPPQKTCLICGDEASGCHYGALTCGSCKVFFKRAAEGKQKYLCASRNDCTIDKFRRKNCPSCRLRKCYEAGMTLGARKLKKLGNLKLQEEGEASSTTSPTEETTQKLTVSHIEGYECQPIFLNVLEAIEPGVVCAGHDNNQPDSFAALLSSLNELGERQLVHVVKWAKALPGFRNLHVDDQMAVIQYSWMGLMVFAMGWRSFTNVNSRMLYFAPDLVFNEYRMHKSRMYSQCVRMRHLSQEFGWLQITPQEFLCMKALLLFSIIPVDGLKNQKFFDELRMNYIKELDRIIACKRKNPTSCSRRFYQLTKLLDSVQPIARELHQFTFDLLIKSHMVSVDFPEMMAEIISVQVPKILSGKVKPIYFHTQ
Test: Androgen Receptor ELISA assay (PathScan AR ELISA) in VCaP cells: AR degradation, Dmax and DC50
Assay type: cell-based
Outline: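 VCaP cells in phenol red-free RPMI with 5% charcoal-stripped FBS were grown at least 3 days, then given compound as 7 half-log doses in 0.1% DMSO with 0.1 nM R1881 for 24 h. Lysates went into a sandwich AR ELISA with TMB read at 450 nm.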

[1] = VCaP, highest percentage of Androgen Receptor degradation observed, VCaP cells (Table 32); read-out: VCaP Dmax (%)
[2] = concentration that caused 50% Androgen Receptor degradation, VCaP cells (Table 32); read-out: VCaP DC50
[3] = VCaP cells; Table 36; read-out: VCaP DC50
[4] = VCaP, VCaP cells; Table 36; read-out: VCaP Dmax (%)
[5] = read-out: VCaP DC50; VCaP cells; Table 35
[6] = read-out: VCaP DC50; VCaP cells; Table 34
[7] = VCaP cells; Table 35; read-out: VCaP DC50
[8] = VCaP, VCaP cells; Table 35; read-out: VCaP Dmax (%)

Cc1ncsc1-c1ccc(CNC(=O)[C@@H]2C[C@@H](O)CN2C(=O)[C@@H](NC(=O)COCCCC[C@H](C)Oc2ccc(C(=O)N[C@H]3C(C)(C)[C@H](Oc4ccc(C#N)c(Cl)c4)C3(C)C)cc2)C(C)(C)C)cc1 [Example 161, (2S,4R)-1-[(2S)-3,3-dimethyl-2-(2-{[(5R)-5-(4-{[trans-3-(3-chloro-4-cyanophenoxy)-2,2,4,4-tetramethylcyclobutyl]carbamoyl}phen-oxy)hexyl]oxy}acetamido)butanoyl]-4-hydroxy-N-{[4-(4-methyl-1,3-thiazol-5-yl)phenyl]methyl}pyrrolidine-2-carboxamide]
Dmax [1]: > 71% | DC50 [2]: < 50 nM

Cc1ncsc1-c1ccc([C@H](C)NC(=O)C2C[C@@H](O)CN2C(=O)C(NC(=O)COC(C)(C)CN2CCN(c3ccc(C(=O)NC4C(C)(C)C(Oc5ccc(C#N)c(Cl)c5)C4(C)C)cn3)CC2)C(C)(C)C)cc1 (stereo partly drawn) [Example 815, N-((1r,3r)-3-(3-chloro-4-cyanophenoxy)-2,2,4,4-tetramethylcyclobutyl)-6-(4-(2-(2-(((S)-1-((2S, 4R)-4-hydroxy-2-(((S)-1-(4-(4-methylthiazol-5-yl)phenyl)ethyl)carbamoyl)pyrrolidin-1-yl)-3,3-dimethyl-1-oxobutan-2-yl)amino)-2-oxoethoxy)-2-methylpropyl)piperazin-1-yl) nicotinamide]
DC50 [3]: < 50 nM | Dmax [4]: 51 to 70%

Cc1ncsc1-c1ccc([C@H](CO)NC(=O)[C@@H]2C[C@@H](O)CN2C(=O)[C@@H](NC(=O)CN2CCN(CCC3CCN(c4ccc(C(=O)N[C@H]5C(C)(C)[C@H](Oc6ccc(C#N)c(Cl)c6)C5(C)C)cn4)C3)CC2)C(C)(C)C)cc1 (stereo partly drawn) [Example 841, N-((1r,3r)-3-(3-chloro-4-cyanophenoxy)-2,2,4,4-tetramethylcyclobutyl)-6-(3-(2-(4-(2-(((S)-1-((2S,4R)-4-hydroxy-2-(((R)-2-hydroxy-1-(4-(4-methylthiazol-5-yl)phenyl)ethyl)carbamoyl)pyrrolidin-1-yl)-3,3-dimethyl-1-oxobutan-2-yl)amino)-2-oxoethyl)piperazin-1-yl)ethyl)pyrrolidin-1-yl)nicotinamide]
DC50 [3]: < 50 nM | Dmax (VCaP, read-out: VCaP Dmax (%)): > 71%

Cc1ncsc1-c1ccc([C@H](C)NC(=O)[C@@H]2C[C@@H](O)CN2C(=O)[C@H](C(C)C)n2cc(Oc3cccc(OCCCCCOc4ccc(N5C(=S)N(c6ccc(C#N)c(C(F)(F)F)c6)C(=O)C5(C)C)cc4)c3)cn2)nc1 [Example 426]
Dmax (VCaP, read-out: VCaP Dmax (%)): < 25% | DC50 [5]: > 501 nM

Cc1ncsc1-c1ccc([C@H](C)NC(=O)[C@@H]2C[C@@H](O)CN2C(=O)[C@@H](NC(=O)CCCCN2C[C@H]3C[C@@H]2CN3c2ccc(C(=O)N[C@H]3C[C@H](Oc4ccc(C#N)c(Cl)c4)C3)cn2)C(C)(C)C)cc1 [Example 798, N-((1r,3R)-3-(3-chloro-4-cyanophenoxy)cyclobutyl)-6-((1R,4R)-5-(5-(((S)-1-((2S,4R)-4-hydroxy-2-(((S)-1-(4-(4-methylthiazol-5-yl)phenyl)ethyl)carbamoyl)pyrrolidin-1-yl)-3,3-dimethyl-1-oxobutan-2-yl)amino)-5-oxopentyl)-2,5-diazabicyclo[2.2.1]heptan-2-yl)nicotinamide]
DC50 [3]: > 501 nM | Dmax [4]: < 25%

Cc1ncsc1-c1ccc([C@H](C)NC(=O)[C@@H]2C[C@@H](O)CN2C(=O)[C@H](C(C)C)N(C)C(=O)CN2CCN(CCOc3ccc(C(=O)N[C@H]4C(C)(C)[C@H](Oc5ccc(C#N)c(Cl)c5)C4(C)C)cc3)CC2)cc1 [Example 683, (2S,4R)-1-(N-(2-(4-(2-(4-(((1r,3r)-3-(3-chloro-4 cyanophenoxy)-2,2,4,4-tetramethylcyclobutyl)carbamoyl)phenoxy)eth-yl)piperazin-1-yl)acetayl)-N-methyl-L-valyl)-4-hydroxy-N-((S)-1-(4-(4-methylthiazol-5-yl)phenyl)ethyl)pyrrolidine-2-carboxamide]
DC50 [3]: > 501 nM | Dmax [4]: 26 to 50%

Cc1ncsc1-c1ccc([C@H](C)NC(=O)[C@@H]2C[C@@H](O)CN2C(=O)[C@@H](NC(=O)COCCCCOc2ccc(-c3ccc(N4C(=S)N(c5ccc(C#N)c(C(F)(F)F)c5)C(=O)C4(C)C)cn3)cn2)C(C)(C)C)cc1 [Example 401]
Dmax (VCaP, read-out: VCaP Dmax (%)): > 71% | DC50 [6]: < 50 nM

Cc1ncsc1-c1ccc([C@H](C)NC(=O)[C@@H]2C[C@@H](O)CN2C(=O)[C@H](NC(=O)COCCCCCNc2ccc(C(=O)N[C@H]3C(C)(C)[C@H](Oc4ccc(C#N)c(Cl)c4)C3(C)C)cc2)C(C)(C)C)cc1 [Example 457]
DC50 [7]: > 501 nM | Dmax [8]: < 25%

Cc1ncsc1-c1ccc([C@H](C)NC(=O)[C@@H]2C[C@@H](O)CN2C(=O)[C@@H](NC(=O)COCCCCCNc2ccc(C(=O)N[C@H]3C(C)(C)[C@H](Oc4cnc(C#N)c(C(F)(F)F)c4)C3(C)C)cc2)C(C)(C)C)cc1 [Example 497]
DC50 [7]: < 50 nM | Dmax [8]: 51 to 70%

CC(C)(C)[C@H](NC(=O)COCCCCCNc1ccc(C(=O)N[C@H]2C(C)(C)[C@H](Oc3ccc(C#N)c(Cl)c3)C2(C)C)cc1)C(=O)N1C[C@H](O)C[C@H]1C(=O)NCc1ccc(-c2cccnn2)cc1 [Example 531]
DC50 [7]: < 50 nM | Dmax [8]: 26 to 50%

C[C@H](NC(=O)[C@@H]1C[C@@H](O)CN1C(=O)[C@@H](NC(=O)COCCCOCCCCCOc1ccc(N2C(=S)N(c3ccc(C#N)c(C(F)(F)F)c3)C(=O)C2(C)C)cc1)C(C)(C)C)c1ccc(-c2nccn2C)cc1 [Example 452]
Dmax (VCaP, read-out: VCaP Dmax (%)): < 25% | DC50 [5]: > 501 nM

Cc1ncsc1-c1ccc([C@H](C)NC(=O)[C@@H]2C[C@@H](O)CN2C(=O)[C@@H](NC(=O)COc2ccc(OC3CCC(Oc4ccc(C(=O)N[C@H]5C(C)(C)[C@H](Oc6ccc(C#N)c(Cl)c6)C5(C)C)cc4)CC3)nc2)C(C)(C)C)cc1 (some centres unmarked) [Example 433]
DC50 [7]: < 50 nM | Dmax [8]: 51 to 70%

Cc1ncsc1-c1ccc(CNC(=O)[C@@H]2C[C@@H](O)CN2C(=O)[C@@H](NC(=O)CO[C@@H](C)CCCCOc2ccc(C(=O)N[C@H]3C(C)(C)[C@H](Oc4ccc(C#N)c(Cl)c4)C3(C)C)cc2)C(C)(C)C)cc1 [Example 159, (2S,4R)-1-[(2S)-3,3-dimethyl-2-(2-{[(2S)-6-(4-{[trans-3-(3-chloro-4-cyanophenoxy)-2,2,4,4-tetramethylcyclobutyl]carbamoyl}phen-oxy)hexan-2-yl]oxy}acetamido)butanoyl]-4-hydroxy-N-{[4-(4-methyl-1,3-thiazol-5-yl)phenyl]methyl}pyrrolidine-2-carboxamide]
Dmax [1]: > 71% | DC50 [2]: < 50 nM

Cc1ncsc1-c1ccc([C@H](C)NC(=O)C2C[C@@H](O)CN2C(=O)[C@@H](NC(=O)CN2C[C@@H]3C[C@H]2CN3CCCc2ccc(C(=O)N[C@H]3C(C)(C)[C@H](Oc4ccc(C#N)c(Cl)c4)C3(C)C)cc2)C(C)(C)C)cc1 (stereo partly drawn) [Example 807, (2S,4R)-1-((S)-2-(2-((1R,4R)-5-(3-(4-(((1r,3R)-3-(3-chloro-4-cyanophenoxy)-2,2,4,4-tetramethylcyclobutyl)carbamoyl)phenyl)propyl)-2,5-diazabicyclo[2.2.1]heptan-2-yl)acetamido)-3,3-dimethylbutanoyl)-4-hydroxy-N-((S)-1-(4-(4-methylthiazol-5-yl)phenyl)ethyl)pyrrolidine-2-carboxamide]
DC50 [3]: < 50 nM

Cc1ncsc1-c1ccc(CNC(=O)[C@H]2C[C@@H](O)CN2C(=O)[C@@H](NC(=O)[C@@H](C)Oc2ccc(OCCOc3ccc(N4C(=S)N(c5ccc(C#N)c(C(F)(F)F)c5)C(=O)C4(C)C)cc3)cc2)C(C)(C)C)cc1 [Example 381]
Dmax (VCaP, read-out: VCaP Dmax (%)): 26 to 50% | DC50 [6]: < 50 nM
